PubChem BioAssay (NCI)
Values joined by “and” are separate entries in the source; they are usually repeats but may differ in a detail not shown here. Identical values can stand only once.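 Five concentrations, 48 hours, 96-well plates. GI50: concentration for 50% inhibition of growth. Definition used: TGI = concentration required for complete inhibition of growth.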

Experiments:
Assay in all cases: NCI tumour cell line growth inhibition, 48 h
HOP-62 NSCLC = test system: HOP-62 NSCLC
A498 renal = test system: A498 renal
DU-145 prostate = test system: DU-145 prostate
SNB-19 CNS = test system: SNB-19 CNS
SF-295 CNS = test system: SF-295 CNS
PC-3 prostate = test system: PC-3 prostate
DLD-1 colon = test system: DLD-1 colon
EKVX NSCLC = test system: EKVX NSCLC
NCI-H460 lung = test system: NCI-H460 lung
CCRF-CEM leukemia = test system: CCRF-CEM leukemia
P388/ADR leukemia = test system: P388/ADR leukemia
BT-549 breast = test system: BT-549 breast
HS 578T breast = test system: HS 578T breast
DMS 273 small cell lung = test system: DMS 273 small cell lung
P388 leukemia = test system: P388 leukemia
UACC-257 melanoma = test system: UACC-257 melanoma
XF 498 CNS = test system: XF 498 CNS
SK-MEL-5 melanoma = test system: SK-MEL-5 melanoma
OVCAR-8 ovarian = test system: OVCAR-8 ovarian
MDA-MB-435 = test system: MDA-MB-435
UACC-62 melanoma = test system: UACC-62 melanoma
RPMI-8226 leukemia = test system: RPMI-8226 leukemia
TK-10 renal = test system: TK-10 renal
SW-620 colon = test system: SW-620 colon
T-47D breast = test system: T-47D breast
CAKI-1 renal = test system: CAKI-1 renal
OVCAR-3 ovarian = test system: OVCAR-3 ovarian
SK-MEL-2 melanoma = test system: SK-MEL-2 melanoma
SK-MEL-28 melanoma = test system: SK-MEL-28 melanoma
MDA-MB-231 breast = test system: MDA-MB-231 breast
SNB-75 CNS = test system: SNB-75 CNS
SNB-78 CNS = test system: SNB-78 CNS
DMS 114 small cell lung = test system: DMS 114 small cell lung
U251 CNS = test system: U251 CNS
COLO 205 colon = test system: COLO 205 colon
SF-268 CNS = test system: SF-268 CNS
SF-539 CNS = test system: SF-539 CNS
HT29 colon = test system: HT29 colon
RXF 393 renal = test system: RXF 393 renal
M19-MEL melanoma = test system: M19-MEL melanoma
NCI-H226 lung = test system: NCI-H226 lung
OVCAR-5 ovarian = test system: OVCAR-5 ovarian
MDA-N = test system: MDA-N
MOLT-4 leukemia = test system: MOLT-4 leukemia
NCI-H522 lung = test system: NCI-H522 lung
NCI-H23 lung = test system: NCI-H23 lung
HOP-18 NSCLC = test system: HOP-18 NSCLC
KM20L2 colon = test system: KM20L2 colon
786-0 renal = test system: 786-0 renal
KM12 colon = test system: KM12 colon
K-562 leukemia = test system: K-562 leukemia
SR leukemia = test system: SR leukemia
IGROV1 ovarian = test system: IGROV1 ovarian
M14 melanoma = test system: M14 melanoma
SN12K1 renal = test system: SN12K1 renal
ACHN renal = test system: ACHN renal
HCT-15 colon = test system: HCT-15 colon

Nc1ccn([C@@H]2C=C(CO)[C@@H](O)[C@H]2O)c(=O)n1
GI50 (HOP-62 NSCLC): 0.0593 µM and 0.0749 µM
GI50 (A498 renal): 0.242 µM
GI50 (DU-145 prostate): 0.05 µM
TGI (DU-145 prostate): 500 µM
TGI (SNB-19 CNS): 500 µM and > 625 µM
TGI (SF-295 CNS): 316 µM and > 625 µM
TGI (PC-3 prostate): 500 µM
GI50 (DLD-1 colon): 0.0625 µM
TGI (DLD-1 colon): 500 µM and > 625 µM
GI50 (EKVX NSCLC): 2.77 µM
TGI (EKVX NSCLC): 134 µM
TGI (NCI-H460 lung): 2.27 µM and 9.48 µM and 8.82 µM
TGI (CCRF-CEM leukemia): 294 µM and > 625 µM
TGI (P388/ADR leukemia): 2.19 µM
TGI (BT-549 breast): 113 µM
GI50 (HS 578T breast): 4.56 µM
TGI (DMS 273 small cell lung): 218 µM and 62.5 µM
TGI (P388 leukemia): 1.84 µM
GI50 (UACC-257 melanoma): 2.97 µM and 1.12 µM
TGI (UACC-257 melanoma): 470 µM
GI50 (XF 498 CNS): < 0.0625 µM
TGI (SK-MEL-5 melanoma): 406 µM and 379 µM
TGI (OVCAR-8 ovarian): 67 µM and > 625 µM
GI50 (MDA-MB-435): 0.0377 µM
TGI (MDA-MB-435): 500 µM
TGI (UACC-62 melanoma): 135 µM and 224 µM
GI50 (RPMI-8226 leukemia): 0.0128 µM and 0.0635 µM and 0.126 µM
GI50 (TK-10 renal): 0.184 µM
TGI (TK-10 renal): 431 µM
TGI (SW-620 colon): 303 µM and > 625 µM
GI50 (T-47D breast): 0.581 µM
TGI (T-47D breast): 261 µM
TGI (CAKI-1 renal): 4.52 µM and 4.16 µM and 22.2 µM
TGI (OVCAR-3 ovarian): 500 µM and > 625 µM
TGI (SK-MEL-2 melanoma): 346 µM and 301 µM
TGI (SK-MEL-28 melanoma): 500 µM and > 625 µM
GI50 (MDA-MB-231 breast): 0.413 µM
TGI (MDA-MB-231 breast): 500 µM
TGI (SNB-75 CNS): 128 µM and > 625 µM
GI50 (SNB-78 CNS): 63.6 µM
TGI (SNB-78 CNS): 156 µM and > 625 µM
GI50 (DMS 114 small cell lung): 0.0677 µM
TGI (DMS 114 small cell lung): 449 µM and > 625 µM
TGI (U251 CNS): 500 µM and > 625 µM
GI50 (COLO 205 colon): 0.0295 µM
TGI (SF-268 CNS): 500 µM and > 625 µM
TGI (SF-539 CNS): 266 µM and > 625 µM
TGI (HT29 colon): 394 µM and > 625 µM
TGI (RXF 393 renal): 201 µM and 44.8 µM
GI50 (M19-MEL melanoma): 0.275 µM
TGI (M19-MEL melanoma): 244 µM and > 625 µM
GI50 (NCI-H226 lung): 0.501 µM
TGI (NCI-H226 lung): 493 µM
GI50 (OVCAR-5 ovarian): 0.13 µM
GI50 (MDA-N): 0.05 µM
TGI (MDA-N): 500 µM
GI50 (MOLT-4 leukemia): 0.0171 µM
GI50 (NCI-H522 lung): 0.0242 µM
GI50 (NCI-H23 lung): 0.114 µM
TGI (HOP-18 NSCLC): 500 µM
TGI (KM20L2 colon): 500 µM and > 625 µM
GI50 (786-0 renal): 0.257 µM
TGI (786-0 renal): 500 µM
GI50 (KM12 colon): 0.16 µM and 0.0625 µM
TGI (KM12 colon): 500 µM and > 625 µM
GI50 (K-562 leukemia): 0.0189 µM
TGI (K-562 leukemia): 335 µM
GI50 (SR leukemia): 0.05 µM
TGI (IGROV1 ovarian): 222 µM and > 625 µM
GI50 (M14 melanoma): 0.329 µM
GI50 (SN12K1 renal): 0.0625 µM
TGI (SN12K1 renal): 83.8 µM and 160 µM
GI50 (ACHN renal): 0.05 µM
TGI (ACHN renal): 500 µM
TGI (HCT-15 colon): 483 µM and > 625 µM
